Measurements as given in US6262104A, “Diarylalkenylamine derivatives” (SmithKline Beecham p.l.c., priority 1995, dated 2001).
Structures can show the parent of a compound that is named as a salt.

Target: T1, delta (Mus musculus, UniProt P32300)
T1 construct: Vasa deferentia were obtained from CD-1 mice; from tissue; host or cells: vas deferens of CD-1 mice
Assay: Mouse vas deferens (MVD) bioassay, delta agonist/antagonist activity
Settings: CD-1 mouse vasa deferentia, electrically stimulated, Mg2+-free Krebs buffer, 37° C.
Protocol: The delta agonist/antagonist activity of the compounds of the present invention is determined in the mouse vas deferens (MVD) bioassay as described below.
Vasa deferentia were obtained from CD-1 mice and were suspended in a Mg^2+ - free Krebsa buffer at 37° C. The tissues were electrically stimulated with pulse trains having the following parameters: train duration 50 ms, stimulus duration 2 ms, frequency of stimuli 50 Hz, maximal voltage 60-70 V, train frequency 0.1 Hz. Concentration response curves for each compounds were constructed cumulatively. Linear regression analysis and IC50 concentrations were evaluated according to Talarida and Murray (Manual of Pharmacological Calculations, Springer Verlag NY, 1981).

T1 sequence (P32300 whole entry): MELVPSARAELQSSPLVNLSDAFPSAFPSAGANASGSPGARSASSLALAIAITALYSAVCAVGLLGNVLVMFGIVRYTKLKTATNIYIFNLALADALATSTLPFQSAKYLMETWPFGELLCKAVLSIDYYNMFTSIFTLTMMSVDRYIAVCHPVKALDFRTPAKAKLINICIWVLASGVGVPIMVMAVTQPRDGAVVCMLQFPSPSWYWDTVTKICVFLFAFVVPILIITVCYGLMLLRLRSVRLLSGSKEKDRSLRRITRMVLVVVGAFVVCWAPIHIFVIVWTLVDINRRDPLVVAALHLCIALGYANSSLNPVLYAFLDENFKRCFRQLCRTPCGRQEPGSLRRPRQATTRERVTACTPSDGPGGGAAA

Structure (SMILES): CCN(CC)C(=O)c1ccc(/C(=C\CN2CCCC2)c2cccc(O)c2)cc1 [Example 2, (E)-N,N-Diethyl-4-[[1-(3-hydroxyphenyl)-3-pyrrolidin-1-yl]-1-propenyl]benzamide citrate]
- IC50: 30 nM
